Data on 20 molecules can be found in patent US9938281B2 (Merck Sharp & Dohme Corp., priority 2012, dated 2018).

Assay [1] deals with T1, PI3K-delta (Homo sapiens, UniProt O00329).
T1 construct: purchased Upstate; Millipore 14-604
Briefly: HTRF PI3K biochemical assay, delta isoform. The settings on record: form screened (neutral or TFA salt) given, read-out: PI3Kdelta IC50. For orientation: TR-FRET usually uses a lanthanide donor and a delayed reading to cut background.

The target of assay [2] is T2, PI3K-alpha (Homo sapiens, UniProt P42336).
T2 construct: purchased Upstate; Millipore 14-602
Briefly: HTRF PI3K biochemical assay, alpha isoform. The settings on record: ratio PI3K-alpha IC50 value / PI3K-delta IC50 value.

T1 sequence (O00329 whole entry): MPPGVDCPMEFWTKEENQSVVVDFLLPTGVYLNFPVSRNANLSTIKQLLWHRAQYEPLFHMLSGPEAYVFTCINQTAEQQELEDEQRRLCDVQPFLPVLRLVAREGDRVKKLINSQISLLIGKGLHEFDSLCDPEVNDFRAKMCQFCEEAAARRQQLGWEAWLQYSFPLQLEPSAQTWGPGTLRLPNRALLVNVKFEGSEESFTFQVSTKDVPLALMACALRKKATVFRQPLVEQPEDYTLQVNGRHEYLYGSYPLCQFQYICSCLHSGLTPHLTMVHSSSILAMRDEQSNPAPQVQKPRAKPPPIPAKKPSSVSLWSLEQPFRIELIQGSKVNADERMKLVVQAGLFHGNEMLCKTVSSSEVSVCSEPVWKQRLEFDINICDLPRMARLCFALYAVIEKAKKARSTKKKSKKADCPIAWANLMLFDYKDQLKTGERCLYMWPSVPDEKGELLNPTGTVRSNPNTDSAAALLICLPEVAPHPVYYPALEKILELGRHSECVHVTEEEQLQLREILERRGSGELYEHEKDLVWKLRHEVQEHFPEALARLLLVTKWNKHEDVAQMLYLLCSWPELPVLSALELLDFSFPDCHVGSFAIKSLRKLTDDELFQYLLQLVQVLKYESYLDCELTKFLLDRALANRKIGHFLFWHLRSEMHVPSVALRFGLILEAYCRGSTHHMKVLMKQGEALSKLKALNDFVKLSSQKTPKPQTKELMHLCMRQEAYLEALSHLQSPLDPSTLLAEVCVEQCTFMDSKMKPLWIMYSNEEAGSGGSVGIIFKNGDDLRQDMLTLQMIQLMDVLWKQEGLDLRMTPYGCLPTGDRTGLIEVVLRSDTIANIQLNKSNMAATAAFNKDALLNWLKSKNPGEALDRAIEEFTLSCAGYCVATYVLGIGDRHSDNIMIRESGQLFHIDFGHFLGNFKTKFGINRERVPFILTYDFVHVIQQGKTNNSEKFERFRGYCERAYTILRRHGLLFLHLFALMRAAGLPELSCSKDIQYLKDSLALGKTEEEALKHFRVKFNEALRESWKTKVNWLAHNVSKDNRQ
T1 sequence (P27986 whole entry partner): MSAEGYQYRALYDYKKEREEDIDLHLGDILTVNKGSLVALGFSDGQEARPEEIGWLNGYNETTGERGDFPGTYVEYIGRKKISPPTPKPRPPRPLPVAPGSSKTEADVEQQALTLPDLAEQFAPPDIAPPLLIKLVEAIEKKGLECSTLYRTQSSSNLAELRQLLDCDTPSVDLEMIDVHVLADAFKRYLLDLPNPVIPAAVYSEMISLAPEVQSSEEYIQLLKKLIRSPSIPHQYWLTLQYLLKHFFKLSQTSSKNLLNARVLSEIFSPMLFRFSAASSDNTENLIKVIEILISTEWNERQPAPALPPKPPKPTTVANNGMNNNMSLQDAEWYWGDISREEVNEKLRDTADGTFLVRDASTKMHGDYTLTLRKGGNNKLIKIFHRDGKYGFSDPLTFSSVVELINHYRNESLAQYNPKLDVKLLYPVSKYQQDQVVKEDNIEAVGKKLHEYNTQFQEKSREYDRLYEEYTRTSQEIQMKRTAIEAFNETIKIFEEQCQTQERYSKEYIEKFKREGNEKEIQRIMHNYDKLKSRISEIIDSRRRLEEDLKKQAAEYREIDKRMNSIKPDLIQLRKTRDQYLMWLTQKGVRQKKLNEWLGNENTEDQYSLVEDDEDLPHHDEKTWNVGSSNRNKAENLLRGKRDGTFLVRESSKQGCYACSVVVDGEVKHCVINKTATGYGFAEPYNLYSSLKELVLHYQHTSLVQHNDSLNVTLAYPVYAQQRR
T2 sequence (P42336 whole entry): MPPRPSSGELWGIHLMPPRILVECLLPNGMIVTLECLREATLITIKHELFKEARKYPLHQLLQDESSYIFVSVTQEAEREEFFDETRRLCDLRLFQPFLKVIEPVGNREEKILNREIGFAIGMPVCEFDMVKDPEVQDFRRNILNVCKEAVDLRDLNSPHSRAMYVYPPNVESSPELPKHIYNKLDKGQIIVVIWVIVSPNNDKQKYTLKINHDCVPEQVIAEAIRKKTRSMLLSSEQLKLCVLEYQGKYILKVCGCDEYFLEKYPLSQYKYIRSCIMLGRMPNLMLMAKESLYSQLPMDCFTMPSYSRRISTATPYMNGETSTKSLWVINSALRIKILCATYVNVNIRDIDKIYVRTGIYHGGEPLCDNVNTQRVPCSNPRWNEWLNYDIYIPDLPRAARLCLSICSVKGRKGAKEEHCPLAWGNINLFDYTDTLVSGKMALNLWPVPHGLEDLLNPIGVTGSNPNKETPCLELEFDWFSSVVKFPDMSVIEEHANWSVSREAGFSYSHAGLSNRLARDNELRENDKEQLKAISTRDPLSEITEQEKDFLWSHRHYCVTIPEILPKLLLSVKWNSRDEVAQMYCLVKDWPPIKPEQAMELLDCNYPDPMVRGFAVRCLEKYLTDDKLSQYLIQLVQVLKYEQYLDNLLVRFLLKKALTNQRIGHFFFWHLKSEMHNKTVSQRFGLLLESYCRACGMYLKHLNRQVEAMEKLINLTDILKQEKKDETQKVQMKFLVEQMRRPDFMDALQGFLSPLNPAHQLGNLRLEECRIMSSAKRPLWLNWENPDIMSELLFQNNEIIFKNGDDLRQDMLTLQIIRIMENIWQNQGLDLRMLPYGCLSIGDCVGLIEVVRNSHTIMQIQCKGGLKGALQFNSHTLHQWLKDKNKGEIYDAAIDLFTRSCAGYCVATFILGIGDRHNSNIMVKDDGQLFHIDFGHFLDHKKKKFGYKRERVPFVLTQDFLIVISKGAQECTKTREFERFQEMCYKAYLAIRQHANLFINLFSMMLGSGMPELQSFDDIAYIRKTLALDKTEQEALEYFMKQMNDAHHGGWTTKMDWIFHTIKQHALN
T2 sequence (P27986 whole entry partner): as the sequence (P27986 whole entry partner) above

As for `CCn1c(N2CC[C@@H](O)C2)nc2c(N[C@H]3CCN(C(=O)C4CC4)C3)ncnc21` [Compound 8-1, (3R)-1-(6-{[(3S)-1-(cyclopropylcarbonyl)pyrrolidin-3-yl]amino}-9-ethyl-9H-purin-8-yl)pyrrolidin-3-ol], the IC50 in assay [1] stood at 510 nM. Also, the “Selectivity versus PI3Kalpha” value in assay [2] is listed as greater than 10.
With `CCn1c(-c2cnc(C)nc2)nc2c(N[C@H]3CCN(C(=O)[C@H]4C[C@H]4C)C3)ncnc21` [Compound 2-91, 9-ethyl-N-[(3S)-1-{[(1S,2R)-2-methylcyclopropyl]carbonyl}pyrrolidin-3-yl]-8-(2-methylpyrimidin-5-yl)-9H-purin-6-amine], the IC50 in assay [1] was 12 nM. Moreover, the “Selectivity versus PI3Kalpha” value in assay [2] is on record as greater than 10.
As to `CCn1c(-c2cnc(C)nc2)nc2c(N[C@H]3C[C@H](CO)N(C(=O)OC(C)(C)C)C3)ncnc21` [Compound 1-20, tert-butyl (2R,4S)-4-{[9-ethyl-8-(2-methylpyrimidin-5-yl)-9H-purin-6-yl]amino}-2-(hydroxymethyl)pyrrolidine-1-carboxylate], the IC50 in assay [1] worked out at 12 nM. Besides, the “Selectivity versus PI3Kalpha” value in assay [2] was greater than 10.
Regarding `CCn1c(-c2cnc(C)nc2)nc2c(N[C@H]3CCN(C(=O)CCNC)C3)ncnc21` [Compound 2-86, 9-ethyl-N-{(3S)-1-[3-(methylamino)propanoyl]pyrroli-din-3-yl}-8-(2-methylpyrimidin-5-yl)-9H-purin-6-amine], in assay [1], the IC50 is 46 nM. The “Selectivity versus PI3Kalpha” value in assay [2] is recorded as greater than 10.
As for `CCn1c(-c2cnc(C)nc2)nc2c(N[C@H]3CCN(C(=O)NC4CC4)C3)ncnc21` [Compound 12-6, (3S)-N-cyclopropyl-3-{[9-ethyl-8-(2-methylpyrimidin-5-yl)-9H-purin-6-yl]amino}pyrrolidine-1-carboxamide], the IC50 in assay [1] was found to be 1.7 nM. The “Selectivity versus PI3Kalpha” value in assay [2] was greater than 10.
On to `CCn1c(-c2cnc(C)nc2)nc2c(N[C@H]3CCN(c4ccccn4)C3)ncnc21` [Compound 4-1, 9-ethyl-8-(2-methylpyrimidin-5-yl)-N-[(3S)-1-pyridin-2-ylpyrrolidin-3-yl]-9H-purin-6-amine], for which the IC50 in assay [1] was less than 1 nM. Also, the “Selectivity versus PI3Kalpha” value in assay [2] is on record as greater than 10.
`CCn1c(C(C)(C)C)nc2c(N[C@H]3CCN(C(=O)C4CC4)C3)ncnc21` [Compound 7-24, 8-tert-butyl-N-[(3S)-1-(cyclopropylcarbonyl)pyrrolidin-3-yl]-9-ethyl-9H-purin-6-amine]: the IC50 in assay [1] is 150 nM. Besides, the “Selectivity versus PI3Kalpha” value in assay [2] is reported as greater than 10.
`CCC(=O)N1CC[C@H](Nc2ncnc3c2nc(-c2cnc(C(C)(C)C)s2)n3CC)C1` [Compound 2-10, (S)-1-(3-((8-(2-(tert-butyl)thiazol-5-yl)-9-ethyl-9H-purin-6-yl)amino)pyrrolidin-1-yl)propan-1-one]: in assay [1], the IC50 was less than 1 nM. In addition, the “Selectivity versus PI3Kalpha” value in assay [2] is reported as greater than 10.
For `CCn1c(-c2cnc(C)nc2)nc2c(N[C@H]3CCN(C(=O)C4CC(F)(F)C4)C3)ncnc21` [Compound 2-24, (S)-(3,3-difluorocyclobutyl)(3-((9-ethyl-8-(2-methylpyrimidin-5-yl)-9H-purin-6-yl)amino)pyrrolidin-1-yl)methanone], in that order: 6.8 nM and greater than 10.
The like results for `CCn1ncc(-c2nc3c(N[C@H]4CCN(C(=O)C5CC5)C4)ncnc3n2C)c1C` [Compound 2-7, N-[(3S)-1-(cyclopropylcarbonyl)pyrrolidin-3-yl]-8-(1-ethyl-5-methyl-1H-pyrazol-4-yl)-9-methyl-9H-purin-6-amine] were, in that order, 1.2 nM and greater than 10.
As to `CCn1c(-c2ccc(C(F)(F)F)nc2)nc2c(N[C@H]3CCN(C(=O)N4CCC4)C3)ncnc21` [Compound 12-26, N-[(3S)-1-(azetidin-1-ylcarbonyl)pyrrolidin-3-yl]-9-ethyl-8-[6-(trifluoromethyl)pyridin-3-yl]-9H-purin-6-amine], the IC50 in assay [1] was less than 1 nM. Also, the “Selectivity versus PI3Kalpha” value in assay [2] is greater than 10.
As to `CCn1c(-c2cnc(C)nc2)nc2c(N[C@H]3CCN(C(=O)C4CC45CCCC5)C3)ncnc21` (single isomer, unassigned) [Compound 2-35, 9-ethyl-8-(2-methylpyrimidin-5-yl)-N-[(3S)-1-((R or S)-spiro[2.4]hept-1-ylcarbonyl)pyrrolidin-3-yl]-9H-purin-6-amine], the IC50 in assay [1] was less than 1 nM. Moreover, the “Selectivity versus PI3Kalpha” value in assay [2] is on record as greater than 10.
For `CCn1c(-c2cnc(C)nc2)nc2c(N[C@H]3CN[C@@H](C(=O)N(C)C4CC4)C3)ncnc21` [Compound 15-13, (4R)-N-cyclopropyl-4-{[9-ethyl-8-(2-methylpyrimidin-5-yl)-9H-purin-6-yl]amino}-N-methyl-D-prolinamide], in assay [1], the IC50 worked out at 29 nM. For the same molecule, the “Selectivity versus PI3Kalpha” value in assay [2] is listed as greater than 10.
`CCn1c(-c2cnc(C)nc2)nc2c(N[C@H]3CCN(C(=O)c4cocn4)C3)ncnc21` [Compound 2-72, 9-ethyl-8-(2-methylpyrimidin-5-yl)-N-[(3S)-1-(1,3-oxazol-4-ylcarbonyl)pyrrolidin-3-yl]-9H-purin-6-amine]: the IC50 in assay [1] was 2.8 nM. Moreover, the “Selectivity versus PI3Kalpha” value in assay [2] was greater than 10.
The like results for `CCn1c(-c2ccc(C(F)(F)F)nc2)nc2c(N[C@H]3CCN(C(=O)C4CCCO4)C3)ncnc21` (single isomer, unassigned) [Compound 2-104, 9-ethyl-N-{(3S)-1-[(2R or 2S)-tetrahydrofuran-2-ylcarbonyl]pyrrolidin-3-yl}-8-[6-(trifluoromethyl)pyridin-3-yl]-9H-purin-6-amine] were, in that order, 3.4 nM and greater than 10.
For `CCC(=O)N1CC[C@H](Nc2ncnc3c2nc(-c2ncn(CC)c2C)n3C)C1` [Compound 3-12, 8-(1-ethyl-5-methyl-1H-imidazol-4-yl)-9-methyl-N-[(3S)-1-propanoylpyrrolidin-3-yl]-9H-purin-6-amine], in assay [1], the IC50 was found to be 690 nM. Moreover, in assay [2], the “Selectivity versus PI3Kalpha” value was greater than 10.
As to `CCn1c(COC)nc2c(N[C@H]3CCN(C(=O)C4CC4)C3)ncnc21` [Compound 7-8, N-[(3S)-1-(cyclopropylcarbonyl)pyrrolidin-3-yl]-9-ethyl-8-(methoxymethyl)-9H-purin-6-amine], the IC50 in assay [1] amounted to 190 nM. Besides, in assay [2], the “Selectivity versus PI3Kalpha” value is reported as greater than 10.
With `CCC(=O)N1CC[C@H](Nc2ncnc3c2nc(-c2cc(O)cc(F)c2)n3C)C1` [Compound 3-9, 3-fluoro-5-(9-methyl-6-{[(3S)-1-propanoylpyrrolidin-3-yl]amino}-9H-purin-8-yl)phenol], the IC50 in assay [1] is 1.3 nM. The “Selectivity versus PI3Kalpha” value in assay [2] was greater than 10.
For the molecule `CCn1c(-c2cnc(C)nc2)nc2c(N[C@H]3CCN(C(=O)C4CCCCN4)C3)ncnc21` (mixture of isomers) [Compound 2-83, 9-ethyl-8-(2-methylpyrimidin-5-yl)-N-[(3S)-1-((R and S)-piperidin-2-ylcarbonyl)pyrrolidin-3-yl]-9H-purin-6-amine], in assay [1], the IC50 came out at 19 nM. For the same molecule, in assay [2], the “Selectivity versus PI3Kalpha” value is recorded as greater than 10.
Consider `CCC(=O)N1CC[C@H](Nc2ncnc3c2nc(-c2ccc(OC)c(C)c2)n3C)C1` [Compound 3-32, 8-(4-methoxy-3-methylphenyl)-9-methyl-N-[(3S)-1-propanoylpyrrolidin-3-yl]-9H-purin-6-amine], for which, in assay [1], the IC50 was 1.9 nM. For the same molecule, in assay [2], the “Selectivity versus PI3Kalpha” value is given as greater than 10.
